# From paper PMC11240878, “Synthesis, enzyme inhibition assay, and molecular modeling study of novel pyrazolines linked to 4-methylsulfonylphenyl scaffold: antitumor activity and cell cycle analysis” (RSC Advances, 2024)
# Key:
# HL-60(TB) = assay: NCI single-dose GI%, leukemia; type: cell-based, human; details: 10.0 μM in one dose
# K-562 = assay: NCI single-dose GI%, leukemia; type: cell-based, human; details: K-562, leukemia; 10.0 μM in one dose
# MOLT-4 = assay: NCI single-dose GI%, leukemia; type: cell-based, human; details: MOLT-4, leukemia; 10.0 μM in one dose
# A549/ATCC = assay: NCI single-dose GI%, NSC lung; type: cell-based, human; details: 10.0 μM in one dose
# COLO 205 = assay: NCI single-dose GI%, colon; type: cell-based, human; details: COLO 205, colon; 10.0 μM in one dose
# HT29 = assay: NCI single-dose GI%, colon; type: cell-based, human; details: 10.0 μM in one dose
# U251 = assay: NCI single-dose GI%, CNS; type: cell-based, human; details: 10.0 μM in one dose
# UACC-257 = assay: NCI single-dose GI%, melanoma; type: cell-based, human; details: UACC-257, melanoma; 10.0 μM in one dose
# SK-OV-3 = assay: NCI single-dose GI%, ovarian; type: cell-based, human; details: SK-OV-3, ovarian; 10.0 μM in one dose
# PC-3 = assay: NCI single-dose GI%, prostate; type: cell-based, human; details: PC-3, prostate; 10.0 μM in one dose
# MCF7 = assay: NCI single-dose GI%, breast; type: cell-based, human; details: 10.0 μM in one dose
# BT-549 = assay: NCI single-dose GI%, breast; type: cell-based, human; details: BT-549, breast; 10.0 μM in one dose
# T-47D = assay: NCI single-dose GI%, breast; type: cell-based, human; details: 10.0 μM in one dose
# MDA-MB-231 = assay: cells; details: Homo sapiens, MDA-MB-231, 48 h, read-out: In vitro cytotoxicity IC50
# Method: (§1) The antitumor experiment was conducted on 59 human tumor cell lines derived from nine different human tissues, following the procedure of the Drug Evaluation Branch at the NCI, Bethesda, MD.[33]
# leukemia HL-60 = assay: cells; details: Homo sapiens, HL-60, 48 h, read-out: In vitro cytotoxicity IC50
# Method: as §1
# in vitro = details: human
# Method: (§2) A normal fibroblast-like fetal lung cell line (WI-38) was used to further investigate the therapeutic safety of the newly synthesized hybrids and evaluate their selective cytotoxicity toward normal and tumor cells.[33,77]
# as §1
# [1] = tested on: WI-38 normal fibroblast cells; assay: in vitro; details: ratio of WI38 IC50 to cancer cell IC50 values
# Method: as §2, §1
# HL-60 cells [2] = assay: Annexin V-FITC/PI apoptosis assay; type: cell-based, human; details: 24 h, at IC50 concentration
# From the text: Most anticancer agents kill cancer cells via an apoptosis induction mechanism.[33,77]
# As per our earlier study, we induced apoptosis using the leukemia HL-60 cell line and a widely recognized Annexin 5-FITC/PI detection kit. The cell line samples were examined utilizing a FACSCalibur flow cytometer.[33,77]
# HL-60 cells [3] = assay: Cell cycle analysis by flow cytometry; type: cell-based, human; details: at IC50 concentration
# Method: Flow cytometry measures cell growth in different cell cycle phases (G0–G1, S, G2/M and pre-G1).[33,77] This study aimed to find out how the target compounds affect the growth of cancer cells by examining at how they change the cell cycle and cause apoptosis in HL-60 cells.
# The cell cycle analysis was conducted similarly to our prior study, using the leukemia HL-60 cell line. The cells were stained with the DNA fluorochrome PI and analyzed using a FACSCalibur flow cytometer.[33,77]
# [4] = tested on: caspase-3 in MDA-MB-231 cells; assay: Apoptotic markers assay, caspase-3; type: cell-based, human; details: at IC50 concentration, vs untreated control
# Method: (§3) The levels of Bax (apoptosis promoter), Bcl-2 (apoptosis inhibitor), and apoptosis coordination enzymes (caspase-3 and caspase-9) were measured.[78–80]
# (§4) Apoptotic markers experiment was performed according to reported procedure using MDA-MB-231 cancer cell line.[78–80]
# [5] = tested on: caspase-9 in MDA-MB-231 cells; assay: Apoptotic markers assay, caspase-9; type: cell-based, human; details: at IC50 concentration, vs untreated control
# Method: as §3, §4
# [6] = tested on: Bcl-2 in MDA-MB-231 cells; assay: Apoptotic markers assay, Bcl-2; type: cell-based, human; details: at IC50 concentration, vs untreated control
# Method: as §3
# [7] = tested on: breast adenocarcinoma MCF-7; assay: cells; details: Homo sapiens, MCF7, 48 h, read-out: In vitro cytotoxicity IC50, MCF-7; MTT, 48 h drug exposure; mean ± SD of three experiments
# COX-2 = molecular target: T1, COX-2 (Ovis aries, UniProt P79208); assay: Colorimetric COX-2 inhibition assay
# T1 sequence (P79208 17-603): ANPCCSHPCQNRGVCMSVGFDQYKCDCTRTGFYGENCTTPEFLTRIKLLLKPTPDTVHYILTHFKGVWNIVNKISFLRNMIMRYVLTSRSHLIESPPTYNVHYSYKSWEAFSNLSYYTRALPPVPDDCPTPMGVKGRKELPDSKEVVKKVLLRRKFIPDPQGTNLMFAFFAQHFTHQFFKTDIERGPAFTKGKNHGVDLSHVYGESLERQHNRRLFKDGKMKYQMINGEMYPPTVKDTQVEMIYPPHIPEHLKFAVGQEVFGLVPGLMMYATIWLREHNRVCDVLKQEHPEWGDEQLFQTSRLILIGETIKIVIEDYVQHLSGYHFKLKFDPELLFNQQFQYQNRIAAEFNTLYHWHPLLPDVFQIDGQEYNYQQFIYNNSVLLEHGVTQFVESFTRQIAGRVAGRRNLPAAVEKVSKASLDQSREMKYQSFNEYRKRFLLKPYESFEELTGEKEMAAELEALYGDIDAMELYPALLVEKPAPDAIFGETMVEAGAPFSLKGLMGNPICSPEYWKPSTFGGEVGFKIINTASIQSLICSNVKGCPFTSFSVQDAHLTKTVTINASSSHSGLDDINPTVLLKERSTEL
# EGFR = EGFR (Homo sapiens, UniProt P00533); assay: EGFR tyrosine kinase inhibition assay
# VEGFR2 = VEGFR2 (Homo sapiens, UniProt P35968); assay: VEGFR2 tyrosine kinase inhibition assay
# Sequence of VEGFR2 (P35968 20-1356): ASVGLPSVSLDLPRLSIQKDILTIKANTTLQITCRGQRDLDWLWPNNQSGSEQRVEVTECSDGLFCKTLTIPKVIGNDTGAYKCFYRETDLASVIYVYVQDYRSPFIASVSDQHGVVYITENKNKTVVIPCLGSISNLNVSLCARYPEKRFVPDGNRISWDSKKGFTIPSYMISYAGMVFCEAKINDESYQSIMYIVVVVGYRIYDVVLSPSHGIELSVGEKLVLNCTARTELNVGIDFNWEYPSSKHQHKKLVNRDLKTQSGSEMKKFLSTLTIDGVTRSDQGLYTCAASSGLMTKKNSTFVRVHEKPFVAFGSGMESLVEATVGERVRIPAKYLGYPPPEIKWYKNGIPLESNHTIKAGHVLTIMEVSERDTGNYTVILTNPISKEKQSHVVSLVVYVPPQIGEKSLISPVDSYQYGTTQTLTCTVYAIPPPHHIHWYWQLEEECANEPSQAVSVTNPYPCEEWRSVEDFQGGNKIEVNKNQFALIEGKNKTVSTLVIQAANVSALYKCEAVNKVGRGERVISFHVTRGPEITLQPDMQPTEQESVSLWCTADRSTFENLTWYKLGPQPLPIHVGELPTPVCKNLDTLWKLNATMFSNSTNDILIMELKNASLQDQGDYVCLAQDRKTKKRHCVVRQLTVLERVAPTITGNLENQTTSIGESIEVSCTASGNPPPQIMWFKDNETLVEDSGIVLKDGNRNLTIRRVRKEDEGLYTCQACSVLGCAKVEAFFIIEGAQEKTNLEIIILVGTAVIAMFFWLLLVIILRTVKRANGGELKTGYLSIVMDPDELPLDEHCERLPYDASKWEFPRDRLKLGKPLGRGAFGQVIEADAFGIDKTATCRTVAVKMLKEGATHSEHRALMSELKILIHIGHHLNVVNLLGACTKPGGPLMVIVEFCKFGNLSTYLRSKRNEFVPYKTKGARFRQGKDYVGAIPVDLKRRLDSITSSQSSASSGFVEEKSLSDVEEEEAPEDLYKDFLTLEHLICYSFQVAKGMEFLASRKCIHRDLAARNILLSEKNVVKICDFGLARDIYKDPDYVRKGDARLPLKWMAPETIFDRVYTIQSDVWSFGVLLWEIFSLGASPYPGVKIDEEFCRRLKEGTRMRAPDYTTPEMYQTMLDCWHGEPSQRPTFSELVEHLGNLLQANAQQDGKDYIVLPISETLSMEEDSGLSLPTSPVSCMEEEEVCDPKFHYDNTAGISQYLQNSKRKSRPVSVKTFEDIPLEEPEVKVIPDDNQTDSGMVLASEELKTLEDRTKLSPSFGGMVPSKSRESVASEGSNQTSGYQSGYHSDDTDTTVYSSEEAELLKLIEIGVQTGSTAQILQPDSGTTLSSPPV
# Sequence of EGFR (P00533 25-1210): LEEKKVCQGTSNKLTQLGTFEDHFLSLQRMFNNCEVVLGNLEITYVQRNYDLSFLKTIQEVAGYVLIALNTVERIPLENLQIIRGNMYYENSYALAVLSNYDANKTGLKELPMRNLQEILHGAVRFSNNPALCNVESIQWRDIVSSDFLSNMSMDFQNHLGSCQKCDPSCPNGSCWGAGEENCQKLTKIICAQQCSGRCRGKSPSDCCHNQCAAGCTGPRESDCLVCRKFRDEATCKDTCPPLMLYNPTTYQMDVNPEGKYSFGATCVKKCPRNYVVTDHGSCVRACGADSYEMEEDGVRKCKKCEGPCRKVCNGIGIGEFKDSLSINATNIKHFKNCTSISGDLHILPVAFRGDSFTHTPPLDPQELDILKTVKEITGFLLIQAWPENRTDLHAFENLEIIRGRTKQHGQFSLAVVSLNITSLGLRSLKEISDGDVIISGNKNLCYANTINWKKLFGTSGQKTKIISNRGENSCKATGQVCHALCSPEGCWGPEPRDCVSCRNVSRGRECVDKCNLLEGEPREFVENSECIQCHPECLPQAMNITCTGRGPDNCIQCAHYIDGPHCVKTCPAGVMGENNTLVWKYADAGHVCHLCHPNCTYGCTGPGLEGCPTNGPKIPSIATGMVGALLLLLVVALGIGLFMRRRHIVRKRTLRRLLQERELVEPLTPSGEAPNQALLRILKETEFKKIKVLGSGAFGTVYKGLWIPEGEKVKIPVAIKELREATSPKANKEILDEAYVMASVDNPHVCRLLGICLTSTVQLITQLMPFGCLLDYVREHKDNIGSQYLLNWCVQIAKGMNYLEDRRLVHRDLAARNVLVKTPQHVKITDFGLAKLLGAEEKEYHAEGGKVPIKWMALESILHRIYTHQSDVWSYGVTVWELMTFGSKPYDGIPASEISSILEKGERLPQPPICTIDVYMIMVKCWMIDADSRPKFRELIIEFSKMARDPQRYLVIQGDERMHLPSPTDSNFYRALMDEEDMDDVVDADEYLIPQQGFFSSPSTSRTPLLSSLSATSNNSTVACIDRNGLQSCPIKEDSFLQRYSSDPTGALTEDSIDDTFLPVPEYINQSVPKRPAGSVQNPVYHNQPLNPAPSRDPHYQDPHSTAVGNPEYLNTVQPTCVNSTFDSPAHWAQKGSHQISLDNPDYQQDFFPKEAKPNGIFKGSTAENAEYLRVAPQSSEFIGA
SMILES,GI% (HL-60(TB)) [%],GI% (K-562) [%],GI% (MOLT-4) [%],GI% (A549/ATCC) [%],GI% (COLO 205) [%],GI% (HT29) [%],GI% (U251) [%],GI% (UACC-257) [%],GI% (SK-OV-3) [%],GI% (PC-3) [%],GI% (MCF7) [%],GI% (BT-549) [%],GI% (T-47D) [%],IC50 (MDA-MB-231) [µM],IC50 (leukemia HL-60) [µM],IC50 at 48 h (in vitro) [µM],"Mean tumor selectivity index (WI38/HL60, MCF7, and MDA-MB-231) [1]",Apoptosis Early (HL-60 cells [2]) [%],Apoptosis Late (HL-60 cells [2]) [%],Apoptosis Total (percentage of annexin V-FITC positive cells) (HL-60 cells [2]) [%],further results
"Cc1ccc(C2=NN(C(=O)c3ccc(S(C)(=O)=O)cc3)C(c3ccc(C)cc3)C2)cc1 (stereo not drawn) [Compound 18g, (3,5-Bis(4-tolyl)-4,5-dihydro-1H-pyrazol-1-yl)(4-(methylsulfonyl)phenyl)methanone]",66,80,56,43,33,15,23,40,26,33,52,27,32,4.07 ± 0.18,10.4 ± 0.68,26.2 ± 1.16,3.73,4.47,7.84,13.69,Necrosis (HL-60 cells [2]): 1.38%; % G0–G1 (HL-60 cells [3]): 43.52%; % G2–M (HL-60 cells [3]): 29.09%; % Pre-G1 (HL-60 cells [3]): 13.69%; % S (HL-60 cells [3]): 27.39%; phase of cell cycle arrest (HL-60 cells [3]): S/G2 phase; Casp3 gene expression (fold change) [4]: 3.945 fold change; Casp9 gene expression (fold change) [5]: 4.386 fold change; Bcl2 gene expression (fold change) [6]: 0.252 fold change; IC50 [7]: 11.7 ± 0.96 µM; IC50 (COX-2): 94 ± 4.41 µM; IC50 (EGFR): 1.02 ± 0.034 µM; IC50 (VEGFR2): 0.168 ± 0.003 µM
"CS(=O)(=O)c1ccc(C(=O)N2N=C(c3ccccc3)CC2c2ccccc2O)cc1 (stereo not drawn) [Compound 18h, (5-(2-Hydroxyphenyl)-3-phenyl-4,5-dihydro-1H-pyrazol-1-yl)(4-(methylsulfonyl)phenyl)methanone]",73,55,62,45,20,20,48,39,25,21,22,19,30,7.18 ± 0.32,8.99 ± 0.4,40.9 ± 1.81,4.51,6.18,3.34,10.77,Necrosis (HL-60 cells [2]): 1.25%; % G0–G1 (HL-60 cells [3]): 53.27%; % G2–M (HL-60 cells [3]): 17.07%; % Pre-G1 (HL-60 cells [3]): 10.77%; % S (HL-60 cells [3]): 29.66%; phase of cell cycle arrest (HL-60 cells [3]): S/G2 phase; Casp3 gene expression (fold change) [4]: 5.559 fold change; Casp9 gene expression (fold change) [5]: 2.799 fold change; Bcl2 gene expression (fold change) [6]: 0.423 fold change; IC50 [7]: 12.4 µM; IC50 (COX-2): 19.3 ± 0.72 µM; IC50 (EGFR): 0.574 ± 0.019 µM; IC50 (VEGFR2): 0.135 ± 0.009 µM
"CS(=O)(=O)c1ccc(C(=O)N2N=C(c3ccccc3)CC2c2ccc(F)cc2)cc1 (stereo not drawn) [Compound 18c, (5-(4-Fluorophenyl)-3-phenyl-4,5-dihydro-1H-pyrazol-1-yl)(4-(methylsulfonyl)phenyl)methanone]",46,33,39,32,22,19,12,32,14,17,11,14,24,12.5 ± 0.56,8.43 ± 1.7,34.8 ± 1.54,3.02,2.91,4.4,8.06,Necrosis (HL-60 cells [2]): 0.76%; % G0–G1 (HL-60 cells [3]): 51.19%; % G2–M (HL-60 cells [3]): 17.53%; % Pre-G1 (HL-60 cells [3]): 8.07%; % S (HL-60 cells [3]): 31.28%; phase of cell cycle arrest (HL-60 cells [3]): S/G2 phase; Casp3 gene expression (fold change) [4]: 7.453 fold change; Casp9 gene expression (fold change) [5]: 5.158 fold change; Bcl2 gene expression (fold change) [6]: 0.184 fold change; IC50 [7]: 16.2 ± 0.72 µM; IC50 (COX-2): 127 ± 8.23 µM; IC50 (EGFR): 1.12 ± 0.037 µM; IC50 (VEGFR2): 0.218 ± 0.005 µM
